Marks after values point to notes of the source that are not given here.
Assays:
Format in all cases: in vivo, rat
[1] = test system: osteoporosis model rats; test: Serum estrogen indicators (E2, FSH) by ELISA in osteoporosis model rats; conditions: bilateral ovariectomy female SD rats, intragastric once a day, 8 weeks, 10 mg/kg
Description: (§1) Samples: the traditional Chinese medicine (TCM) composition prepared in Example 1, a positive drug (Estradiol Valerate) and a competing drug (Caltrate).
(§2) Female SD rats were randomly divided into sham operation group, model group, positive control group (estradiol valerate), competing drug group (Caltrate), high dose TCM composition (prepared in Example 1) group and low dose TC′M composition (prepared in Example 1) group, and 8 in each group.
(§3) Female SD rats were treated by bilateral ovariectomy to establish osteoporosis model rats.
(§4) The osteoporosis model rats were subjected to intragastric administration once a day and the administration cycle lasted for 8 weeks.
(§5) After 8 weeks, the rats were sacrificed, and blood was collected from the abdominal aorta and subjected to standing for 1 hour. Then the blood sample was centrifuged to collect serum, which was detected for the bone metabolic biochemical indicators, including bone glaprotein (BGP), bone specific alkaline phosphatase (BALP), carboxyterminal propeptide of type I procollagen (PICP) and N-telopeptides of type I collagen (NTX); estrogen indicators, including serum estradiol E2 and follicle stimulating hormone (FSH); and blood biochemical indexes, including serum phosphorus and serum calcium. […]
(§6) The dosage for rats was calculated as follows: • dosage for rat (daily dose for human/60)*6;

[2] = test system: osteoporosis model rats; test: Serum biochemical indexes (phosphorus, calcium) in osteoporosis model rats
Description: as §1, §2, §3, §4
(§7) After 8 weeks, the rats were sacrificed, and blood was collected from the abdominal aorta and subjected to standing for 1 hour. Then the blood sample was centrifuged to collect serum, which was detected for the bone metabolic biochemical indicators, including bone glaprotein (BGP), bone specific alkaline phosphatase (BALP), carboxyterminal propeptide of type I procollagen (PICP) and N-telopeptides of type I collagen (NTX); estrogen indicators, including serum estradiol E2 and follicle stimulating hormone (FSH); and blood biochemical indexes, including serum phosphorus and serum calcium. Moreover, the complete bilateral femurs were collected, on which the muscle tissues were, completely removed. The left femur was used for femoral mechanical testing, and the right femur was tested for related parameters such as bone density. The above experimental data was used to evaluate the efficacy of the TCM composition of the disclosure.
(§8) The dosage of the TCM composition was determined based on the recommended crude drug dosage in the pharmacopoeia, and 1 g of extract was obtained after the extraction.
(§9) Positive control group: 0.1 g/day for human.
(§10) Competing drug group (Caltrate): one tablet (1 g)/day and 600 mg of calcium/tablet.
(§11) High dose TCM composition group: 1 g/day for human; low dose TCM composition group: 0.5 g/day for human.
as §6

[3] = test system: osteoporosis model rats; test: Bone metabolic biochemical indicators (BGP, BALP, PICP, NTX) by ELISA in osteoporosis model rats; conditions: bilateral ovariectomy female SD rats, intragastric once a day, 8 weeks, serum, 10 mg/kg
Description: as §1, §2, §3, §4, §7, §8, §9, §10, §11, §6

[4] = test system: osteoporosis model rats; test: Bone density parameters of right femur in osteoporosis model rats; conditions: bilateral ovariectomy female SD rats, intragastric once a day, 8 weeks, femoral metaphysis, 10 mg/kg
Description: as §1, §2, §3, §4, §7, §8, §9, §10, §11, §6

[5] = test system: osteoporosis model rats; test: Femoral mechanical testing (left femur) in osteoporosis model rats; conditions: bilateral ovariectomy female SD rats, intragastric once a day, 8 weeks, 10 mg/kg
Description: as §1, §2, §3, §4, §5, §6

[6] = bilateral ovariectomy female SD rats, intragastric once a day, 8 weeks, 10 mg/kg

In the case of `CCCCC(=O)O[C@H]1CC[C@H]2[C@@H]3CCc4cc(O)ccc4[C@H]3CC[C@]12C` [Positive control, Estradiol Valerate], the “E2 (serum estradiol)” value [1] is reported as 32.45 ± 10.24 pg/mL, the FSH [1] is reported as 96.55 ± 11.84 ng/mL and the “Ca (serum calcium)” value [2, 6] is reported as 2.33 ± 0.13 mmol/L. The “P (serum phosphorus)” value [2, 6] was 3.1 ± 0.53 mmol/L, the “serum phosphorus content compared to the model group and the sham-operation group” value ([2]; positive control group, 8 weeks' administration, P<0.05) was “significantly higher” and the “BALP (bone specific alkaline phosphatase)” value [3] was 764.2 ± 123.81 pg/mL. The “BGP (bone glaprotein)” value [3] was 9.93 ± 2.23 ng/mL, the “NTX (N-telopeptides of type I collagen)” value [3] was 26.92 ± 5.68 ng/mL and the “PICP (carboxyterminal propeptide of type I procollagen)” value [3] was 739.33 ± 175.34 ng/mL. The “BMD (bone mineral density)” value [4] was 0.198 ± 0.051 g/cm^2, the “BV/TV (bone volume fraction)” value [4] was 16.863 ± 5.237 % and the “Tb. N (trabecular number)” value [4] was 2.392 ± 0.809* 1/mm. The “Tb. Sp (trabecular separation/spacing)” value [4] was 455.6 ± 182.901 μm and the “Load (maximum load of femur)” value [5] was 109.67 ± 26.78 N.

Source: US20210069275A1, “TRADITIONAL CHINESE MEDICINE COMPOSITION FOR IMPROVING BONE HEALTH AND PREPARATION AND USES THEREOF” (Chenland Nutritionals Inc., priority 2020, published 2021)
